Converted amounts (≈) assume the structure as drawn.
Conditions: buffer; pH 7.4; 200.0 µM

| SMILES | solubility kinetic |
| --- | --- |
| O=C(CNc1cccc([N+](=O)[O-])c1)NCCCc1ccccc1 | 8 µg/mL (≈ 25.5 µM) |
| CCOC(=O)c1ccccc1NC(=O)C1CCCO1 (stereo not given) | > 39.5 µg/mL |
| N/C(=N\OC(=O)c1ccc(F)cc1)c1cccc([N+](=O)[O-])c1 | 2.3 µg/mL (≈ 7.58 µM) |
| CC1CC(C)CN(C(=O)c2cccc3c2-c2ccccc2C3=O)C1 (stereo not given) | 5 µg/mL (≈ 15.7 µM) |
| CC1CCN(C2(O)C(=O)Nc3ccc(Cl)cc32)CC1 (stereo not given) | > 42.1 µg/mL |
| CCC1CCCCN1CC(=O)Nc1ccc2c(c1)OCCO2 (stereo not given) | > 45.7 µg/mL |
| Cc1cc(C)cc(OCC(=O)O/N=C(\N)c2ccccc2Cl)c1 | 13.3 µg/mL (≈ 40 µM) |
| Cc1ccc(NC(=O)CN2C(=O)C3CC=C(Cl)CC3C2=O)cc1 (stereo not given) | > 49.9 µg/mL |
| COC(=O)c1ccc(CN2C(=O)NC3(CCC(C)CC3)C2=O)cc1 (stereo not given) | 7.5 µg/mL (≈ 22.7 µM) |
| CCC(=O)Nc1nc2ccccc2n1Cc1ccccc1Cl | 1.7 µg/mL (≈ 5.42 µM) |
| Cc1ccc(C)c(NC(=O)CCN2CCC(C)CC2)c1 | > 41.2 µg/mL |
| Cc1ccc(NC(=O)c2ccccn2)c(Br)c1 | < 0.3 µg/mL |
| Cc1ccc(C(=O)Nn2cnc3ccccc3c2=O)cc1C | > 44 µg/mL |
| O=C(c1ccc2c(c1)OCO2)N1CCc2ccccc21 | 34.9 µg/mL (≈ 131 µM) |
| Cc1ccc(S(=O)(=O)N2CCOCC2)cc1NC(=O)COC(=O)c1ccc(Br)cc1 | 5.3 µg/mL (≈ 10.7 µM) |
| Cc1ccc(SC(C)C(=O)N2CCN(c3ccccc3)CC2)cc1 (stereo not given) | 34.9 µg/mL (≈ 102 µM) |
| O=C(OCC(=O)N1CCCC1=O)c1cc2ccccc2o1 | > 43.1 µg/mL |
| CCOC(=O)Cc1csc(NC(=O)c2ccc(Cl)s2)n1 | 13.1 µg/mL (≈ 39.6 µM) |
| CCCSC1=C(C#N)C(c2cccs2)CC(=O)N1 (stereo not given) | 33.7 µg/mL (≈ 121 µM) |
| CC(=O)N1CCN(C(=O)c2cc(C)oc2C)CC1 | > 37.5 µg/mL |
| CC(C)CN1C(=O)c2ccc(NC(=O)c3ccco3)cc2C1=O | 4.2 µg/mL (≈ 13.4 µM) |
| Cc1cc(Sc2ncnc(N)c2[N+](=O)[O-])ncn1 | > 39.6 µg/mL |
| Cc1nc2cc(N)ccc2n1C1CCCCC1.Cl | > 45.3 µg/mL |
| COc1ccc(S(=O)(=O)N2CCCCCC2)cc1NC(=O)CN1C(=O)CNC1=O | > 63.7 µg/mL |

| SMILES | solubility kinetic |
| --- | --- |
| COC(=O)CSc1[nH]c2ccc(F)cc2c1[N+](=O)[O-] | 41.8 µg/mL (≈ 147 µM) |
| CCCCOc1ccc(OCCCN2CCOCC2)cc1.Cl | > 49.5 µg/mL |
| COC(=O)c1cccc(NC(=O)CC2NCCNC2=O)c1 (stereo not given) | 39.6 µg/mL (≈ 136 µM) |
| Cc1cccc(NC(=O)C(C)SCc2ccccc2)c1 (stereo not given) | 27.9 µg/mL (≈ 97.8 µM) |
| Cc1cc(C)c(N2C(=O)CCCC2=O)c(Cl)c1 | > 37.8 µg/mL |
| O=C(Nc1ccccc1Cl)NC1(C(=O)N2CCC(O)CC2)CCCCC1 | > 57 µg/mL |
| Cc1cccc(NC(=O)CCN2CCCCC2)c1.Cl | > 42.4 µg/mL |
| O=[N+]([O-])c1ccc(OCCO)nc1 | 26.7 µg/mL (≈ 145 µM) |
| Br.CCSC(=Nc1ccccc1)N1CCOCC1 | 43.9 µg/mL |
| COc1ccccc1/C=C/C(=O)OCC(=O)NCc1ccc2c(c1)OCO2 | 6.3 µg/mL (≈ 17.1 µM) |
| Cc1ccc(S(C)(=O)=O)cc1C(=O)NC(C)C1CC2CCC1C2 (stereo not given) | 47.8 µg/mL (≈ 142 µM) |
| CC1=CSC2=NS(=O)(=O)CCN12 | > 30.6 µg/mL |
| Cc1c(C(=O)O)sc2c1c(=O)n(Cc1ccccc1)c(=O)n2C | > 49.6 µg/mL |
| CCCn1cnc2scc(-c3ccc(C)c(C)c3)c2c1=O | 1.1 µg/mL (≈ 3.69 µM) |
| Cc1ccc(C(=O)c2cc(Br)ccc2N)cc1 | 2.9 µg/mL (≈ 9.99 µM) |
| COc1ccc(C(=O)CNC2=NCCC2)cc1.Cl | > 40.3 µg/mL |
| CCN(CC)CC(=O)Nc1scc2c1c(=O)oc1ccccc12 | < 0.4 µg/mL |
| Cl.Clc1ccccc1CNCc1ccncc1 | 38.9 µg/mL |
| CC1CN(CC(=O)NCc2ccc(F)cc2)CC(C)O1 (stereo not given) | > 42.1 µg/mL |
| O=C(Nc1cccc(S(=O)(=O)N2CCOCC2)c1)c1cc(=O)[nH]c2ccccc12 | 9.9 µg/mL (≈ 23.9 µM) |
| N/C(=N\OC(=O)c1ccccc1F)c1cccc([N+](=O)[O-])c1 | 2.1 µg/mL (≈ 6.93 µM) |
| O=C(NCCN1CCCCC1)Nc1ccc(Cl)cc1 | > 42.3 µg/mL |
| O=C(COC(=O)Cc1ccccc1F)NCCc1ccccc1 | > 47.3 µg/mL |
| Cc1cccc(C(=O)OCC(=O)NCCN2C(=O)CSC2=O)c1[N+](=O)[O-] | > 57.2 µg/mL |

| SMILES | solubility kinetic |
| --- | --- |
| CCN(CC)C(=O)CSc1nc(C)cc(C)c1C#N | 15.1 µg/mL (≈ 54.4 µM) |
| CC(C)CCSc1nc2ccccc2[nH]1 | 10.7 µg/mL (≈ 48.6 µM) |
| CC(=O)c1sc(Nc2cccc3ccccc23)nc1C.Cl | 5.2 µg/mL |
| Cc1occc1C(=O)N(C)Cc1nc(-c2ccccc2)no1 | 40.9 µg/mL (≈ 138 µM) |
| Cc1noc(C)c1CSCC(=O)Nc1ccc(C#N)c(Cl)c1 | > 50.4 µg/mL |
| CCN(CC)c1ccc(/C=C2\C(=O)NC(=S)N(c3ccc(OC)cc3OC)C2=O)o1 | 56 µg/mL (≈ 130 µM) |
| CCN(C(=O)CSc1nc2ccccc2c(=O)n1-c1cccc(C)c1)C1CCS(=O)(=O)C1 (stereo not given) | 2.8 µg/mL (≈ 5.94 µM) |
| CN(CC(=O)Nc1cccc(F)c1)C(=O)CC1CCCCC1 | 21.1 µg/mL (≈ 68.9 µM) |
| CCC(=O)Nc1cc(-c2nc3ncccc3o2)ccc1Cl | 13.8 µg/mL (≈ 45.7 µM) |
| COc1cc(OC)c(NC(C)C(=O)N2CCCC2)cc1Cl (stereo not given) | 45.1 µg/mL (≈ 144 µM) |
| COC(=O)NCC(c1ccco1)N1CCN(c2ccc(OC)cc2)CC1 (stereo not given) | > 53.9 µg/mL |
| CCCCCCn1c(=O)[nH]c2c(c1=O)CCC2 | > 35.4 µg/mL |
| O=C(COC(=O)c1ccc(Br)o1)NCc1ccccc1Cl | 9 µg/mL (≈ 24.2 µM) |
| CC12COC3(C(=O)Nc4ccccc4F)CC1CCC32C (stereo not given) | 9.1 µg/mL (≈ 31.4 µM) |
| O=C(Nc1cccc(S(=O)(=O)N2CCOCC2)c1)C1CC1 | > 46.6 µg/mL |
| C=CCN1C(=O)C2(OCCO2)c2cc(C)ccc21 | > 36.8 µg/mL |
| CCc1ccccc1NC(=O)c1ccccc1N1C(=O)C2C3C=CC(C3)C2C1=O (stereo not given) | 43.4 µg/mL (≈ 112 µM) |
| CCN1C(=O)/C(=C\N2CCN(C(=O)c3ccco3)CC2)SC1=S | 1.1 µg/mL (≈ 3.13 µM) |
| CC(C)(C)c1ccc(NC(=O)CCNC(=O)c2ccco2)cc1 | > 47.2 µg/mL |
| NC(=O)NC(=O)COC(=O)c1ccc2noc(-c3ccccc3)c2c1 | 5.2 µg/mL (≈ 15.3 µM) |
| CNC(=O)C12N=CNN=C1N(C)C(=O)N2C (stereo not given) | > 33.6 µg/mL |
| COc1ccc(S(=O)(=O)N2CCCCC2)cc1NC(=O)Cn1cnc2c1c(=O)n(C)c(=O)n2C | 28.5 µg/mL (≈ 58.1 µM) |
| Fc1ccc(N2CN(Cc3cccnc3)CNC2=S)cc1 | > 45.4 µg/mL |
| COc1ccccc1CC(=O)NC(=O)c1ccccc1O | 41.5 µg/mL (≈ 145 µM) |

| SMILES | solubility kinetic |
| --- | --- |
| Cc1ccc(C(=O)NCCNC(=O)COc2ccc(C)c(C)c2)cn1 | 49.2 µg/mL (≈ 144 µM) |
| Cc1ccc(-c2nc(NCCCO)c3ccccc3n2)cc1 | 37.3 µg/mL (≈ 127 µM) |
| COc1cc(NC(=O)c2cccnc2SC)cc(OC)c1 | > 45.7 µg/mL |
| CC(C)(C)N1CC(C(=O)O)CC1=O (stereo not given) | > 27.8 µg/mL |
| Cc1ccc(C)c(N2C(=O)CC(Cc3ccccc3)C2=O)c1.Cl (stereo not given) | > 49.5 µg/mL |
| COC(=O)NC1c2ccccc2Oc2ccc(C)cc21 (stereo not given) | < 0.6 µg/mL |
| Cl.O=C(O)c1ccc(Nc2ncnc3ccccc23)cc1 | > 45.3 µg/mL |
| COc1ccc(C(=O)NCCONC(=O)c2ccc(OC)cc2)cc1 | 50.6 µg/mL (≈ 147 µM) |
| CCc1cccc(NC(=O)C2CCN(c3ncnc4sc(C)c(C)c34)CC2)c1 | 2.7 µg/mL (≈ 6.84 µM) |
| COc1ccccc1-n1nc(C)c(-c2ccccc2)c1N | > 41.9 µg/mL |
| CCNC(=S)N1CCC(C(=O)c2ccc3c(c2)OCCO3)CC1 | 44.8 µg/mL (≈ 134 µM) |
| O=C(Nc1ccccc1Cl)OC1CN2CCC1CC2 (stereo not given) | 38.1 µg/mL (≈ 136 µM) |
| Fc1ccccc1NC(=S)Nc1ccc(CN2CCOCC2)cc1 | 49.4 µg/mL (≈ 143 µM) |
| COCc1nc2ccccc2n1Cc1c(F)cccc1Cl | > 45.7 µg/mL |
| CC(C)Oc1cccc(C(=O)NC2=NCCS2)c1 | 22 µg/mL (≈ 83.2 µM) |
| OCCN1CCN(C(c2cccs2)c2ccc3cccnc3c2O)CC1 (stereo not given) | 44 µg/mL (≈ 119 µM) |
| CCOc1ccc(-c2c(C)sc3nc[nH]c(=O)c23)cc1 | 24.6 µg/mL (≈ 85.9 µM) |
| COc1cccc(NC(=O)CN(C)C(C)C(=O)N2CCCC2)c1 (stereo not given) | 44.4 µg/mL (≈ 139 µM) |
| COc1ccccc1NC(=S)NCc1ccc(Cl)cc1 | 33 µg/mL (≈ 108 µM) |
| O=C(NCCCc1nc2ccccc2[nH]1)c1ccco1 | > 40.4 µg/mL |
| O=C(Nc1cccc(Cl)c1N1CCOCC1)c1cccnc1 | > 47.7 µg/mL |
| Cc1cnc([N+](=O)[O-])n1CCOC(=O)c1cccc(F)c1 | > 44 µg/mL |
| COc1ccccc1C1CCN(Cc2ccc(Cl)cc2Cl)CC1 | < 0.8 µg/mL |
| O=C(c1cc2cc(Cl)ccc2oc1=O)N1CCCCCCC1 | 7.6 µg/mL (≈ 23.8 µM) |

| SMILES | solubility kinetic |
| --- | --- |
| O=C1NCC(NC(=O)C(F)(F)F)c2cc3c(cc21)OCO3 (stereo not given) | > 45.3 µg/mL |
| CC[C@@H](Nc1ncnc2c1oc1ccccc12)C(=O)O | 29.9 µg/mL (≈ 110 µM) |
| O=CN1CCN(c2c([N+](=O)[O-])c(=O)oc3ccccc23)CC1 | > 45.5 µg/mL |
| Cc1ccc(N/C=C2\CCCCC2=O)nc1 | 31.6 µg/mL (≈ 146 µM) |
| O=C(O)CN1C(=O)C2(OCCO2)c2cc(Br)ccc21 | > 49.2 µg/mL |
| Cc1cccc(C(=O)O/N=C(/c2ccccc2)c2ccncc2)c1 | < 0.3 µg/mL |
| N/C(=N\O)c1ccc(N2CCN(c3ncccc3C(F)(F)F)CC2)nc1 | 51.7 µg/mL (≈ 141 µM) |
| COc1ccc(NC(=O)C(Cc2cc(C)cc(C)c2)C(C)C(=O)O)cc1 (stereo not given) | 36.5 µg/mL (≈ 103 µM) |
| CN1C(=O)C2(OCC(CO)([N+](=O)[O-])CO2)c2ccccc21 (stereo not given) | > 44.1 µg/mL |
| O=C(O)C1CCN(C(=O)c2ccc3c(c2)OCO3)CC1 | 36.2 µg/mL (≈ 131 µM) |
| COC(=O)c1sccc1NC(=S)Nc1cccc(F)c1 | 34.4 µg/mL (≈ 111 µM) |
| CN(C1CCCCC1)S(=O)(=O)c1cn(C)c(=O)n(C)c1=O | > 47.3 µg/mL |
| Cc1cc(C(=O)OCC(=O)N2CCOCC2)ccc1[N+](=O)[O-] | > 46.2 µg/mL |
| N#Cc1c(C(F)(F)F)cc(=O)[nH]c1SCC(=O)O | > 41.7 µg/mL |
| Cc1ccc(Sc2ncccc2[N+](=O)[O-])cc1 | 2.8 µg/mL (≈ 11.4 µM) |
| Cc1ccc(NC(=O)C2CCN(S(=O)(=O)c3cc([N+](=O)[O-])ccc3Cl)CC2)nc1 | 16 µg/mL (≈ 36.5 µM) |
| CC(C)Cc1ccc(S(=O)(=O)Nc2ccc3[nH]c(=O)[nH]c3c2)cc1 | 1.1 µg/mL (≈ 3.18 µM) |
| CC1NC(=S)N(Cc2ccccc2)C1=O (stereo not given) | 31.9 µg/mL (≈ 145 µM) |
| CCCn1c(C(O)c2cc(OC)c(OC)c(OC)c2)nc2ccccc21 (stereo not given) | 49.3 µg/mL (≈ 138 µM) |
| O[C@@H]1CN(Cc2ccccc2Cl)CC[C@H]1N1CCOCC1 | 39.9 µg/mL (≈ 128 µM) |
| O=C(OCC(=O)C12CC3CC(CC(C3)C1)C2)c1ccccn1 | > 44.9 µg/mL |
| CCOCCn1c(-c2ccccc2)nc2ccccc21 | 39.5 µg/mL (≈ 148 µM) |
| COc1ccc(C(=O)COC(=O)c2ccc(Cl)nc2)cc1OC | 10.3 µg/mL (≈ 30.7 µM) |
| CC(C)(C)c1ccc(S(=O)(=O)NCC2CCCO2)cc1 (stereo not given) | 34.9 µg/mL (≈ 117 µM) |

Source: PubChem BioAssay AID1996
